The values that follow come from patent US10479777B2, “Herbicidal azines” (BASF SE, priority 2013, dated 2019).

Assay type in all cases: in vivo
In test [1] the test system is Echinocloa crus-galli. As to the kind of experiment: greenhouse test, pre-emergence treatment. The conditions noted are these: scale from 0 to 100. An excerpt: (§1) The culture containers used were plastic flowerpots containing loamy sand with approximately 3.0% of humus as the substrate. The seeds of the test plants were sown separately for each species.
(§2) For the pre-emergence treatment, the active ingredients, which had been suspended or emulsified in water, were applied directly after sowing by means of finely distributing nozzles. The containers were irrigated gently to promote germination and growth and subsequently covered with transparent plastic hoods until the plants had rooted. This cover caused uniform germination of the test plants, unless this had been impaired by the active ingredients. For the post-emergence treatment, the test plants were first grown to a height of 3 to 15 cm, depending on the plant habit, and only then treated with the active ingredients which had been suspended or emulsified in water. For this purpose, the test plants were either sown directly and grown in the same containers, or they were first grown separately as seedlings and transplanted into the test containers a few days prior to treatment.
(§3) Depending on the species, the plants were kept at 10-25° C. or 20-35° C., respectively. The test period extended over 2 to 4 weeks. During this time, the plants were tended, and their response to the individual treatments was evaluated.
(§4) Evaluation was carried out using a scale from 0 to 100. 100 means no emergence of the plants, or complete destruction of at least the aerial moieties, and 0 means no damage, or normal course of growth. A moderate herbicidal activity is given at values of at least 60, a good herbicidal activity is given at values of at least 70, and a very good herbicidal activity is given at values of at least 85.
(§5) The plants used in the greenhouse experiments were of the following species: […]

The subject of test [2] is Polygonum convolvulus. As to the kind of experiment: greenhouse test, pre-emergence treatment. As to conditions: 62.5 g/ha, scale from 0 to 100.
Excerpt: as §1, §2, §3, §4, §5

Test [3] has as its system Setaria viridis. As to the kind of experiment: greenhouse test, pre-emergence treatment. The conditions noted are these: scale from 0 to 100.
Excerpt: as §1, §2, §3, §4, §5

In test [4] the test system is Amaranthus retroflexus. As to the kind of experiment: greenhouse test, pre-emergence treatment. As to conditions: scale from 0 to 100.
Excerpt: as §1, §2, §3, §4, §5

Test [5] has as its system Abutilon theophrasti. As to the kind of experiment: greenhouse test, post-emergence treatment. As to conditions: scale from 0 to 100.
Excerpt: as §1, §2, §3, §4, §5

Test [6] relates to Amaranthus retroflexus. As to the kind of experiment: greenhouse test, post-emergence treatment. The conditions noted are these: scale from 0 to 100.
Excerpt: as §1, §2, §3, §4, §5

Test [7] has as its system Setaria viridis. As to the kind of experiment: greenhouse test, post-emergence treatment. As to conditions: scale from 0 to 100.
Excerpt: as §1, §2, §3, §4, §5

Test [8] deals with Poa annua. As to the kind of experiment: greenhouse test, pre-emergence treatment. The conditions noted are these: scale from 0 to 100.
Excerpt: as §1, §2, §3, §4, §5

Test [9] concerns Stellaria media. As to the kind of experiment: greenhouse test, pre-emergence treatment. The conditions noted are these: scale from 0 to 100.
Excerpt: as §1, §2, §3, §4, §5

The subject of test [10] is Setaria faberi. As to the kind of experiment: greenhouse test, post-emergence treatment. As to conditions: 500 g/ha, scale from 0 to 100.
Excerpt: as §1, §2, §3, §4, §5

In test [11] the test system is Apera spica-venti. As to the kind of experiment: greenhouse test, pre-emergence treatment. As to conditions: 1000 g/ha, scale from 0 to 100.
Excerpt: as §1, §2, §3, §4, §5

With `CC(C)(F)c1nc(N)nc(Nc2c(F)c(F)nc(F)c2F)n1` [Example 1, 6-(1-Fluoro-1-methyl-ethyl)-N4-(2,3,5,6-tetrafluoro-4-pyridyl)-1,3,5-triazine-2,4-diamine], the herbicidal activity result in [1] (62.5 g/ha), in test [2] and in [3] (62.5 g/ha) was “very good (a very good herbicidal activity is given at values of at least 85)” in each case.

As for `CC(C)(F)c1nc(N)nc(Nc2nc(F)c(F)c(Cl)c2F)n1` [Example 5], the herbicidal activity result in test [4] (125 g/ha), in test [1] (125 g/ha) and in test [3] (125 g/ha) was “very good (a very good herbicidal activity is given at values of at least 85)” in each case.

With `Cc1cccnc1Nc1nc(N)nc(C(F)(F)F)n1` [Example 34], the herbicidal activity entry in test [5] (2000 g/ha), in [6] (2000 g/ha) and in test [7] (2000 g/ha) was “very good (a very good herbicidal activity is given at values of at least 85)” each time.

For `CC(C)Oc1cccnc1Nc1nc(N)nc(C(F)(F)F)n1` [Example 36], the herbicidal activity result in [7] (1104 g/ha) is given as “very good (a very good herbicidal activity is given at values of at least 85)”.

Take `CC(C)(Cl)c1nc(N)nc(Nc2c(F)c(F)nc(F)c2F)n1` [Example 56]: the herbicidal activity result in [8] (125 g/ha) and in test [9] (125 g/ha) was “very good (a very good herbicidal activity is given at values of at least 85)” each time.

Consider `Nc1nc(Nc2c(F)c(F)nc(F)c2F)nc(C2CCCCC2)n1` [Example 59], for which the herbicidal activity entry in test [8] (250 g/ha) and in test [9] (250 g/ha) was “very good (a very good herbicidal activity is given at values of at least 85)” in each case.

On to `CC(c1nc(N)nc(Nc2c(F)c(F)nc(F)c2F)n1)C1CC1` (stereo not shown) [Example 60], for which the herbicidal activity entry in test [5] (500 g/ha), in [6] (500 g/ha) and in test [10] was “very good (a very good herbicidal activity is given at values of at least 85)” throughout.

On to `Nc1nc(Nc2c(F)c(F)nc(F)c2F)nc(C2(F)CCC2)n1` [Example 70], for which the herbicidal activity result in test [4] (1000 g/ha) was “very good (a very good herbicidal activity is given at values of at least 85)”; in test [11], “good (a good herbicidal activity is given at values of at least 70)”.
